Source: PubChem BioAssay (NCI)
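Abbreviation: GI50, concentration required for 50% inhibition of growth. TGI denotes the concentration required for complete inhibition of growth.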

Experiments:
Assay in all cases: inhibition of tumour cell growth, NCI panel, 384-well format; in the data active = GI50 below about 0.43 µM; inactive = the rest
DU-145 prostate = tested on: DU-145 prostate
SF-295 CNS = tested on: SF-295 CNS
MDA-MB-468 breast = tested on: MDA-MB-468 breast
CCRF-CEM leukemia = tested on: CCRF-CEM leukemia
NCI-H23 lung = tested on: NCI-H23 lung
MDA-MB-435 melanoma = tested on: MDA-MB-435 melanoma
786-0 renal = tested on: 786-0 renal
MDA-MB-231 breast = tested on: MDA-MB-231 breast
MOLT-4 leukemia = tested on: MOLT-4 leukemia
OVCAR-3 ovarian = tested on: OVCAR-3 ovarian
UACC-62 melanoma = tested on: UACC-62 melanoma
NCI-H522 lung = tested on: NCI-H522 lung
OVCAR-8 ovarian = tested on: OVCAR-8 ovarian
HCC-2998 colon = tested on: HCC-2998 colon
MALME-3M melanoma = tested on: MALME-3M melanoma
HCT-15 colon = tested on: HCT-15 colon
EKVX NSCLC = tested on: EKVX NSCLC
MCF7 breast = tested on: MCF7 breast
SNB-75 CNS = tested on: SNB-75 CNS
HT29 colon = tested on: HT29 colon
SR leukemia = tested on: SR leukemia
PC-3 prostate = tested on: PC-3 prostate
NCI-H460 NSCLC = tested on: NCI-H460 NSCLC
A549 NSCLC = tested on: A549 NSCLC
M14 melanoma = tested on: M14 melanoma
HS 578T breast = tested on: HS 578T breast
HOP-62 NSCLC = tested on: HOP-62 NSCLC
LOX IMVI melanoma = tested on: LOX IMVI melanoma
OVCAR-4 ovarian = tested on: OVCAR-4 ovarian
BT-549 breast = tested on: BT-549 breast
IGROV1 ovarian = tested on: IGROV1 ovarian
SK-MEL-5 melanoma = tested on: SK-MEL-5 melanoma
NCI/ADR-RES ovarian = tested on: NCI/ADR-RES ovarian
NCI-H226 lung = tested on: NCI-H226 lung
UO-31 renal = tested on: UO-31 renal
RPMI-8226 leukemia = tested on: RPMI-8226 leukemia
SN12C renal = tested on: SN12C renal
HL-60(TB) leukemia = tested on: HL-60(TB) leukemia
ACHN renal = tested on: ACHN renal
SF-539 CNS = tested on: SF-539 CNS
SNB-19 CNS = tested on: SNB-19 CNS
HCT-116 colon = tested on: HCT-116 colon
CAKI-1 renal = tested on: CAKI-1 renal
A498 renal = tested on: A498 renal
OVCAR-5 ovarian = tested on: OVCAR-5 ovarian
UACC-257 melanoma = tested on: UACC-257 melanoma
TK-10 renal = tested on: TK-10 renal
SK-OV-3 ovarian = tested on: SK-OV-3 ovarian
SF-268 CNS = tested on: SF-268 CNS
RXF 393 renal = tested on: RXF 393 renal
KM12 colon = tested on: KM12 colon
SK-MEL-28 melanoma = tested on: SK-MEL-28 melanoma
SW-620 colon = tested on: SW-620 colon
HOP-92 NSCLC = tested on: HOP-92 NSCLC
COLO 205 colon = tested on: COLO 205 colon

CCN1C(=O)N(c2c(F)c(OC)cc(OC)c2F)Cc2cnc3[nH]c(CN4CCOCC4)cc3c21
6.34 µM: TGI (RPMI-8226 leukemia)
active: GI50 (SNB-75 CNS) 0.0229 µM | GI50 (BT-549 breast) 0.0807 µM
> 31.5 µM: TGI (LOX IMVI melanoma)
23.6 µM: TGI (HOP-92 NSCLC)
> 30.1 µM: TGI (MALME-3M melanoma)
57.3 µM: TGI (A498 renal)
5.82 µM: TGI (HS 578T breast)
> 31.6 µM: TGI (OVCAR-3 ovarian) | TGI (NCI-H460 NSCLC) | TGI (A549 NSCLC) | TGI (KM12 colon)
> 44.5 µM: TGI (SF-539 CNS)
6.52 µM: TGI (SNB-75 CNS)
> 100 µM: TGI (DU-145 prostate) | TGI (NCI-H23 lung) | TGI (MDA-MB-435 melanoma) | TGI (786-0 renal) | TGI (UACC-62 melanoma) | TGI (NCI-H522 lung) | TGI (OVCAR-8 ovarian) | TGI (HCC-2998 colon) | TGI (HCT-15 colon) | TGI (EKVX NSCLC) | TGI (MCF7 breast) | TGI (PC-3 prostate) | TGI (M14 melanoma) | TGI (HOP-62 NSCLC) | TGI (OVCAR-4 ovarian) | TGI (IGROV1 ovarian) | TGI (SK-MEL-5 melanoma) | TGI (NCI/ADR-RES ovarian) | TGI (UO-31 renal) | TGI (SN12C renal) | TGI (ACHN renal) | TGI (SNB-19 CNS) | TGI (HCT-116 colon) | TGI (OVCAR-5 ovarian) | TGI (UACC-257 melanoma) | TGI (TK-10 renal) | TGI (SK-OV-3 ovarian) | TGI (SK-MEL-28 melanoma) | TGI (COLO 205 colon)
> 31.4 µM: TGI (CAKI-1 renal)
16.9 µM: TGI (SF-268 CNS)
43.5 µM: TGI (MDA-MB-231 breast)
47.4 µM: TGI (SF-295 CNS)
9.09 µM: TGI (MDA-MB-468 breast)
8.35 µM: TGI (SR leukemia)
9.91 µM: TGI (NCI-H226 lung)
inactive: GI50 (DU-145 prostate) 3.85 µM | GI50 (SF-295 CNS) 4.62 µM | GI50 (MDA-MB-468 breast) 3.64 µM | GI50 (CCRF-CEM leukemia) 5.26 µM | GI50 (NCI-H23 lung) > 23.3 µM | GI50 (MDA-MB-435 melanoma) > 100 µM | GI50 (786-0 renal) 6.99 µM | GI50 (MDA-MB-231 breast) 6.15 µM | GI50 (MOLT-4 leukemia) 1.95 µM | GI50 (OVCAR-3 ovarian) 5.94 µM | GI50 (UACC-62 melanoma) 3.8 µM | GI50 (NCI-H522 lung) > 26.1 µM | GI50 (OVCAR-8 ovarian) 4.8 µM | GI50 (HCC-2998 colon) 6.61 µM | GI50 (MALME-3M melanoma) 4.24 µM | GI50 (HCT-15 colon) 3.17 µM | GI50 (EKVX NSCLC) > 81 µM | GI50 (MCF7 breast) > 60.4 µM | GI50 (HT29 colon) 6.48 µM | GI50 (SR leukemia) 2.67 µM | GI50 (PC-3 prostate) > 100 µM | GI50 (NCI-H460 NSCLC) 3.48 µM | GI50 (A549 NSCLC) 4.69 µM | GI50 (M14 melanoma) 5.19 µM | GI50 (HS 578T breast) 1.06 µM | GI50 (HOP-62 NSCLC) 4.98 µM | GI50 (LOX IMVI melanoma) 4.03 µM | GI50 (OVCAR-4 ovarian) 19.3 µM | GI50 (IGROV1 ovarian) 4.55 µM | GI50 (SK-MEL-5 melanoma) 5.75 µM | GI50 (NCI/ADR-RES ovarian) 4.51 µM | GI50 (UO-31 renal) > 31 µM | GI50 (RPMI-8226 leukemia) 2.11 µM | GI50 (SN12C renal) 5.32 µM | GI50 (HL-60(TB) leukemia) 3.28 µM | GI50 (ACHN renal) 3.86 µM | GI50 (SF-539 CNS) 3.55 µM | GI50 (SNB-19 CNS) > 100 µM | GI50 (HCT-116 colon) 3.84 µM | GI50 (CAKI-1 renal) 1.03 µM | GI50 (A498 renal) 2.03 µM | GI50 (OVCAR-5 ovarian) > 73.3 µM | GI50 (UACC-257 melanoma) > 100 µM | GI50 (TK-10 renal) > 100 µM | GI50 (SK-OV-3 ovarian) 2.62 µM | GI50 (SF-268 CNS) 5.25 µM | GI50 (RXF 393 renal) 0.962 µM | GI50 (KM12 colon) 9.71 µM | GI50 (SK-MEL-28 melanoma) > 100 µM | GI50 (SW-620 colon) 7.31 µM | GI50 (HOP-92 NSCLC) 3.5 µM | GI50 (COLO 205 colon) > 100 µM
12.5 µM: TGI (HL-60(TB) leukemia)
4 µM: TGI (MOLT-4 leukemia)
7.02 µM: TGI (BT-549 breast)
